# Measurements published in publication PMC9126795 (eBioMedicine, 2022).
# Like-named read-outs stand apart in the source and are kept apart here.
# Tested on: patients with HCV and HBV liver cirrhosis
# Assay type: in vivo, human
# [1] = Phase 1 140 mg/m^2/4h (n = 3), Grade 1-2
# [2] = Phase 1 140 mg/m^2/4h (n = 3), Grade 3
# [3] = Phase 1 280 mg/m^2/4h (n = 6), Grade 1-2
# [4] = Phase 1 280 mg/m^2/4h (n = 6), Grade 3
# [5] = Phase 1 380 mg/m^2/4h (n = 6), Grade 1-2
# [6] = Phase 1 380 mg/m^2/4h (n = 6), Grade 3
# [7] = Phase 2a 280 mg/m^2/4h, Phase 1/ 2a (n = 3), Grade 1-2
# [8] = Phase 2a 280 mg/m^2/4h, Phase 1/ 2a (n = 3), Grade 3
# [9] = Phase 2a 280 mg/m^2/4h, Phase 2a only (n = 12), Grade 1-2
# [10] = Phase 2a 280 mg/m^2/4h, Phase 2a only (n = 12), Grade 3
substance,measurement,setting,value
PRI-724,Liver dysfunction at the recommended dose,"Level 2, 280 mg/m^2/4 h",minor and transient
same,AE: Anaemia,[1],0
same,AE: Ascites,[1],0
same,AE: Decreased appetite,[1],0
same,AE: Diarrhea,[1],0
same,AE: Dyspepsia,[1],0
same,AE: Erythema,[1],0
same,AE: Headache,[1],0
same,AE: Hepatic function abnormal,[1],1 (33%)
same,AE: Hypertension,[1],0
same,AE: Hyperuricaemia,[1],0
same,AE: Insomnia,[1],0
same,AE: Muscle spasms,[1],0
same,AE: Nasopharyngitis,[1],1 (33%)
same,AE: Nausea,[1],0
same,AE: Pruritus,[1],0
same,AE: Puncture site pain,[1],0
same,AE: Pyrexia,[1],0
same,AE: Spontaneous bacterial peritonitis,[1],0
same,AE: Viral infection,[1],0
same,AE: Vomiting,[1],0
same,Laboratory abnormality: Alanine aminotransferase increased,[1],0
same,Laboratory abnormality: Aspartate aminotransferase increased,[1],0
same,Laboratory abnormality: Blood creatine phosphokinase increased,[1],0
same,Laboratory abnormality: Blood creatinine increased,[1],0
same,Laboratory abnormality: C-reactive protein increased,[1],0
same,SAE: Anaemia,[1],0
same,SAE: Hepatic function abnormal,[1],0
same,SAE: Spontaneous bacterial peritonitis,[1],0
same,SAE: Viral infection,[1],0
same,AE: Anaemia,[2],0
same,AE: Ascites,[2],0
same,AE: Decreased appetite,[2],0
same,AE: Diarrhea,[2],0
same,AE: Dyspepsia,[2],0
same,AE: Erythema,[2],0
same,AE: Headache,[2],0
same,AE: Hepatic function abnormal,[2],0
same,AE: Hypertension,[2],0
same,AE: Hyperuricaemia,[2],0
same,AE: Insomnia,[2],0
same,AE: Muscle spasms,[2],0
same,AE: Nasopharyngitis,[2],0
same,AE: Nausea,[2],0
same,AE: Pruritus,[2],0
same,AE: Puncture site pain,[2],0
same,AE: Pyrexia,[2],0
same,AE: Spontaneous bacterial peritonitis,[2],0
same,AE: Viral infection,[2],0
same,AE: Vomiting,[2],0
same,Laboratory abnormality: Alanine aminotransferase increased,[2],0
same,Laboratory abnormality: Aspartate aminotransferase increased,[2],0
same,Laboratory abnormality: Blood creatine phosphokinase increased,[2],0
same,Laboratory abnormality: Blood creatinine increased,[2],0
same,Laboratory abnormality: C-reactive protein increased,[2],0
same,SAE: Anaemia,[2],0
same,SAE: Hepatic function abnormal,[2],0
same,SAE: Spontaneous bacterial peritonitis,[2],0
same,SAE: Viral infection,[2],0
same,AE: Anaemia,[3],0
same,AE: Ascites,[3],1 (17%)
same,AE: Decreased appetite,[3],2 (33%)
same,AE: Diarrhea,[3],1 (17%)
same,AE: Dyspepsia,[3],1 (17%)
same,AE: Erythema,[3],0
same,AE: Headache,[3],1 (17%)
same,AE: Hepatic function abnormal,[3],1 (17%)
same,AE: Hypertension,[3],1 (17%)
same,AE: Hyperuricaemia,[3],0
same,AE: Insomnia,[3],1 (17%)
same,AE: Muscle spasms,[3],2 (33%)
same,AE: Nasopharyngitis,[3],1 (17%)
same,AE: Nausea,[3],2 (33%)
same,AE: Pruritus,[3],1 (17%)
same,AE: Puncture site pain,[3],1 (17%)
same,AE: Pyrexia,[3],0
same,AE: Spontaneous bacterial peritonitis,[3],0
same,AE: Viral infection,[3],0
same,AE: Vomiting,[3],2 (33%)
same,Laboratory abnormality: Alanine aminotransferase increased,[3],0
same,Laboratory abnormality: Aspartate aminotransferase increased,[3],0
same,Laboratory abnormality: Blood creatine phosphokinase increased,[3],0
same,Laboratory abnormality: Blood creatinine increased,[3],0
same,Laboratory abnormality: C-reactive protein increased,[3],0
same,SAE: Anaemia,[3],0
same,SAE: Hepatic function abnormal,[3],0
same,SAE: Spontaneous bacterial peritonitis,[3],0
same,SAE: Viral infection,[3],0
same,AE: Anaemia,[4],0
same,AE: Ascites,[4],0
same,AE: Decreased appetite,[4],0
same,AE: Diarrhea,[4],1 (17%)
same,AE: Dyspepsia,[4],0
same,AE: Erythema,[4],0
same,AE: Headache,[4],0
same,AE: Hepatic function abnormal,[4],0
same,AE: Hypertension,[4],0
same,AE: Hyperuricaemia,[4],0
same,AE: Insomnia,[4],0
same,AE: Muscle spasms,[4],0
same,AE: Nasopharyngitis,[4],0
same,AE: Nausea,[4],0
same,AE: Pruritus,[4],0
same,AE: Puncture site pain,[4],0
same,AE: Pyrexia,[4],0
same,AE: Spontaneous bacterial peritonitis,[4],0
same,AE: Viral infection,[4],0
same,AE: Vomiting,[4],0
same,Laboratory abnormality: Alanine aminotransferase increased,[4],1 (17%)
same,Laboratory abnormality: Aspartate aminotransferase increased,[4],1 (17%)
same,Laboratory abnormality: Blood creatine phosphokinase increased,[4],0
same,Laboratory abnormality: Blood creatinine increased,[4],0
same,Laboratory abnormality: C-reactive protein increased,[4],0
same,SAE: Anaemia,[4],0
same,SAE: Hepatic function abnormal,[4],0
same,SAE: Spontaneous bacterial peritonitis,[4],0
same,SAE: Viral infection,[4],0
same,AE: Anaemia,[5],0
same,AE: Ascites,[5],1 (17%)
same,AE: Decreased appetite,[5],1 (17%)
same,AE: Diarrhea,[5],2 (33%)
same,AE: Dyspepsia,[5],0
same,AE: Erythema,[5],0
same,AE: Headache,[5],1 (17%)
same,AE: Hepatic function abnormal,[5],0
same,AE: Hypertension,[5],0
same,AE: Hyperuricaemia,[5],0
same,AE: Insomnia,[5],1 (17%)
same,AE: Muscle spasms,[5],0
same,AE: Nasopharyngitis,[5],0
same,AE: Nausea,[5],2 (33%)
same,AE: Pruritus,[5],0
same,AE: Puncture site pain,[5],0
same,AE: Pyrexia,[5],2 (33%)
same,AE: Spontaneous bacterial peritonitis,[5],0
same,AE: Viral infection,[5],0
same,AE: Vomiting,[5],1 (17%)
same,Laboratory abnormality: Alanine aminotransferase increased,[5],0
same,Laboratory abnormality: Aspartate aminotransferase increased,[5],1 (17%)
same,Laboratory abnormality: Blood creatine phosphokinase increased,[5],1 (17%)
same,Laboratory abnormality: Blood creatinine increased,[5],0
same,Laboratory abnormality: C-reactive protein increased,[5],1 (17%)
same,SAE: Anaemia,[5],0
same,SAE: Hepatic function abnormal,[5],0
same,SAE: Spontaneous bacterial peritonitis,[5],0
same,SAE: Viral infection,[5],0
same,AE: Anaemia,[6],0
same,AE: Ascites,[6],0
same,AE: Decreased appetite,[6],0
same,AE: Diarrhea,[6],0
same,AE: Dyspepsia,[6],0
same,AE: Erythema,[6],0
same,AE: Headache,[6],0
same,AE: Hepatic function abnormal,[6],1 (17%)
same,AE: Hypertension,[6],0
same,AE: Hyperuricaemia,[6],0
same,AE: Insomnia,[6],0
same,AE: Muscle spasms,[6],0
same,AE: Nasopharyngitis,[6],0
same,AE: Nausea,[6],0
same,AE: Pruritus,[6],0
same,AE: Puncture site pain,[6],0
same,AE: Pyrexia,[6],0
same,AE: Spontaneous bacterial peritonitis,[6],0
same,AE: Viral infection,[6],1 (17%)
same,AE: Vomiting,[6],0
same,Laboratory abnormality: Alanine aminotransferase increased,[6],0
same,Laboratory abnormality: Aspartate aminotransferase increased,[6],0
same,Laboratory abnormality: Blood creatine phosphokinase increased,[6],0
same,Laboratory abnormality: Blood creatinine increased,[6],0
same,Laboratory abnormality: C-reactive protein increased,[6],0
same,SAE: Anaemia,[6],0
same,SAE: Hepatic function abnormal,[6],1 (17%)
same,SAE: Spontaneous bacterial peritonitis,[6],0
same,SAE: Viral infection,[6],1 (17%)
same,Serious adverse events (SAEs) observed,"Phase 1/2a, 27 patients",four SAEs among three (one from phase 1 and two from phase 2a) of the 27 patients
same,AE: Anaemia,[7],0
same,AE: Ascites,[7],0
same,AE: Decreased appetite,[7],1 (33%)
same,AE: Diarrhea,[7],1 (33%)
same,AE: Dyspepsia,[7],0
same,AE: Erythema,[7],0
same,AE: Headache,[7],0
same,AE: Hepatic function abnormal,[7],0
same,AE: Hypertension,[7],1 (33%)
same,AE: Hyperuricaemia,[7],0
same,AE: Insomnia,[7],1 (33%)
same,AE: Muscle spasms,[7],0
same,AE: Nasopharyngitis,[7],0
same,AE: Nausea,[7],1 (33%)
same,AE: Pruritus,[7],0
same,AE: Puncture site pain,[7],1 (33%)
same,AE: Pyrexia,[7],0
same,AE: Spontaneous bacterial peritonitis,[7],0
same,AE: Viral infection,[7],0
same,AE: Vomiting,[7],1 (33%)
same,Laboratory abnormality: Alanine aminotransferase increased,[7],0
same,Laboratory abnormality: Aspartate aminotransferase increased,[7],0
same,Laboratory abnormality: Blood creatine phosphokinase increased,[7],0
same,Laboratory abnormality: Blood creatinine increased,[7],0
same,Laboratory abnormality: C-reactive protein increased,[7],0
same,SAE: Anaemia,[7],0
same,SAE: Hepatic function abnormal,[7],0
same,SAE: Spontaneous bacterial peritonitis,[7],0
same,SAE: Viral infection,[7],0
same,AE: Anaemia,[8],0
same,AE: Ascites,[8],0
same,AE: Decreased appetite,[8],0
same,AE: Diarrhea,[8],0
same,AE: Dyspepsia,[8],0
same,AE: Erythema,[8],0
same,AE: Headache,[8],0
same,AE: Hepatic function abnormal,[8],0
same,AE: Hypertension,[8],0
same,AE: Hyperuricaemia,[8],0
same,AE: Insomnia,[8],0
same,AE: Muscle spasms,[8],0
same,AE: Nasopharyngitis,[8],0
same,AE: Nausea,[8],0
same,AE: Pruritus,[8],0
same,AE: Puncture site pain,[8],0
same,AE: Pyrexia,[8],0
same,AE: Spontaneous bacterial peritonitis,[8],0
same,AE: Viral infection,[8],0
same,AE: Vomiting,[8],0
same,Laboratory abnormality: Alanine aminotransferase increased,[8],0
same,Laboratory abnormality: Aspartate aminotransferase increased,[8],0
same,Laboratory abnormality: Blood creatine phosphokinase increased,[8],0
same,Laboratory abnormality: Blood creatinine increased,[8],0
same,Laboratory abnormality: C-reactive protein increased,[8],0
same,SAE: Anaemia,[8],0
same,SAE: Hepatic function abnormal,[8],0
same,SAE: Spontaneous bacterial peritonitis,[8],0
same,SAE: Viral infection,[8],0
same,AE: Anaemia,[9],0
same,AE: Ascites,[9],0
same,AE: Decreased appetite,[9],3 (25%)
same,AE: Diarrhea,[9],2 (17%)
same,AE: Dyspepsia,[9],0
same,AE: Erythema,[9],2 (17%)
same,AE: Headache,[9],1 (8%)
same,AE: Hepatic function abnormal,[9],1 (8%)
same,AE: Hypertension,[9],0
same,AE: Hyperuricaemia,[9],1 (8%)
same,AE: Insomnia,[9],0
same,AE: Muscle spasms,[9],0
same,AE: Nasopharyngitis,[9],1 (8%)
same,AE: Nausea,[9],2 (17%)
same,AE: Pruritus,[9],2 (17%)
same,AE: Puncture site pain,[9],0
same,AE: Pyrexia,[9],0
same,AE: Spontaneous bacterial peritonitis,[9],0
same,AE: Viral infection,[9],0
same,AE: Vomiting,[9],1 (8%)
same,Laboratory abnormality: Alanine aminotransferase increased,[9],2 (17%)
same,Laboratory abnormality: Aspartate aminotransferase increased,[9],3 (25%)
same,Laboratory abnormality: Blood creatine phosphokinase increased,[9],0
same,Laboratory abnormality: Blood creatinine increased,[9],1 (8%)
same,Laboratory abnormality: C-reactive protein increased,[9],0
same,SAE: Anaemia,[9],0
same,SAE: Hepatic function abnormal,[9],0
same,SAE: Spontaneous bacterial peritonitis,[9],0
same,SAE: Viral infection,[9],0
same,AE: Anaemia,[10],2 (17%)
same,AE: Ascites,[10],0
same,AE: Decreased appetite,[10],0
same,AE: Diarrhea,[10],1 (8%)
same,AE: Dyspepsia,[10],0
same,AE: Erythema,[10],0
same,AE: Headache,[10],0
same,AE: Hepatic function abnormal,[10],0
same,AE: Hypertension,[10],1 (8%)
same,AE: Hyperuricaemia,[10],1 (8%)
same,AE: Insomnia,[10],0
same,AE: Muscle spasms,[10],0
same,AE: Nasopharyngitis,[10],0
same,AE: Nausea,[10],0
same,AE: Pruritus,[10],0
same,AE: Puncture site pain,[10],0
same,AE: Pyrexia,[10],0
same,AE: Spontaneous bacterial peritonitis,[10],1 (8%)
same,AE: Viral infection,[10],0
same,AE: Vomiting,[10],0
same,Laboratory abnormality: Alanine aminotransferase increased,[10],1 (8%)
same,Laboratory abnormality: Aspartate aminotransferase increased,[10],0
same,Laboratory abnormality: Blood creatine phosphokinase increased,[10],0
same,Laboratory abnormality: Blood creatinine increased,[10],0
same,Laboratory abnormality: C-reactive protein increased,[10],0
same,SAE: Anaemia,[10],1 (8%)
same,SAE: Hepatic function abnormal,[10],0
same,SAE: Spontaneous bacterial peritonitis,[10],1 (8%)
same,SAE: Viral infection,[10],0
same,"AE liver dysfunction, patients","all patients, 4/27",15%
same,"AE vomiting, patients","all patients, 4/27",15%
same,"AE loss of appetite, patients","all patients, 6/27",22%
same,"AE nausea, patients","all patients, 6/27",22%
same,"AE diarrhoea, patients","all patients, 7/27",26%
same,SAEs related to PRI-724,observed in the 380 mg/m^2/4 h cohort (liver dysfunction: grade 3),One of the four SAEs was possibly related to the PRI-724
